2 compounds from patent US20230343467A1, “SYSTEMS AND METHODS FOR IDENTIFICATION OF CELL LINES, BIOMARKERS, AND PATIENTS FOR DRUG RESPONSE PREDICTION” (THERAINDX LIFESCIENCES PVT LTD, priority 2020, published 2023) can be followed below.

For one experiment, the system named is DU4475. Put plainly: In vitro potency (IC50) of Palbociclib on breast cancer cell line. Format: cell-based. To be noted: Homo sapiens, DU-4475, read-out: Observed IC50. An excerpt:
(§1) Palbociclib, a targeted inhibitor of CDK4/6 indicated for breast cancer. Identification of Human Breast Cancer cell lines sensitive and resistant to Palbociclib using the method 300 for drug discovery and development, particularly for identification, selection and validation of Human Cancer Cell lines and Biomarkers based on Pharmacological Target(s). A comparison of Predicted Efficacy with Observed Efficacy in cell lines/patients is provided. The pharmacological target is Ser/Thr-kinase component of cyclin D-CDK4/6, which inhibits CDK4/6 phosphorylation of retinoblastoma (RB) protein family (RB1). The phenotypic end point of which is the inhibition of cell proliferation. Further, the Breast Cancer Cell Lines are selected based on the multi-omics and pathway regulator status. […] The predicted response (sensitivity or resistance to Palbociclib) was compared with cell line in vitro potency data (IC50) of Palbociclib. The predicted responses were in agreement with observed data (IC50) for Palbociclib's activity on various Human Breast Cancer cell lines. Table 6a and 6b show the comparison of predicted response values, for both sensitive and resistant to Palbociclib, with observed data.

Another experiment relates to EFM19. The experiment is described as above. Format: cell-based. The note with it: Homo sapiens, EFM-19, read-out: Observed IC50.
Source text: as §1

The next experiment deals with HCC1500. The experiment is described as above. Format: cell-based. To be noted: Homo sapiens, read-out: Observed IC50.
Source text: as §1

A further experiment deals with HCC1569. The experiment is described as above. The note with it: Homo sapiens, read-out: Observed IC50. Format: cell-based.
Source text: as §1

Another experiment has as its system HCC2157. The experiment is described as above. The class given is cell-based. To be noted: Homo sapiens, read-out: Observed IC50.
Source text: as §1

For another experiment, the system named is MCF7. The description is as above. To be noted: Homo sapiens, read-out: Observed IC50. Format: cell-based.
Source text: as §1

The subject of the next experiment is MDAMB157. The experiment is described as above. To be noted: Homo sapiens, MDA-MB-157, read-out: Observed IC50. The class given is cell-based.
Source text: as §1

Another experiment relates to MDAMB231. The description is as above. Format: cell-based. To be noted: Homo sapiens, MDA-MB-231, read-out: Observed IC50.
Source text: as §1

In a further experiment the test system is MDAMB361. Described as above. The note with it: Homo sapiens, MDA-MB-361, read-out: Observed IC50. Format: cell-based.
Source text: as §1

A further experiment relates to MDAMB468. Described as above. The class given is cell-based. To be noted: Homo sapiens, MDA-MB-468, read-out: Observed IC50.
Source text: as §1

Experiment [1] deals with cell line population with amplified ABCB1. The experiment in a line: Response curves (IC50 values) of cell line populations, transporter amplified vs wildtype, vincristine. The note with it: IC50 values for 530 cell lines from Cancerrx. An excerpt: (§2) The drug transporter identification module 205 allows identification of co-relating genomic factors such as factors affecting drug transporters, transporter genes, or any alterations therein such as transporter gene amplification including copy number alterations ([…]), increased m-RNA expressions, etc. particularly associated with multidrug resistance (MDR) development. The drug transporter identification module 205 allows identifying drug transporter factors that impact the efficacy of the drug of interest using in vitro sensitivity data, during pre-clinical phase of drug development. […] Drug transporters such as solute carrier (SLC) family and ATP-binding cassette (ABC) family are known to function as drug efflux pumps which contribute towards drug resistance and reduced bioavailability. The method, in various embodiments herein use in vitro sensitivity data in identification of MDR transporter genes during pre-clinical phase of drug development. In an embodiment, in vitro sensitivity data for chemo therapeutic drug, vincristine (particularly cell line-specific IC50 values for 530 cell lines), from cancerrx (database of genomics of drug sensitivity), and cell multi-omics characteristics, from Cancer Cell Line Encyclopedia (CCLE) were used as inputs for the stratification algorithm. […]

Experiment [2] relates to cell line population with amplified ABCB4. Described as above. To be noted: IC50 values for 530 cell lines from Cancerrx.
Source text: as §2

Usually IC50 stands for the concentration needed to halve the response being measured. On to `CC(=O)c1c(C)c2cnc(Nc3ccc(N4CCNCC4)cn3)nc2n(C2CCCC2)c1=O` [Palbociclib], for which the 50% inhibitory concentration (IC50) with DU4475 is greater than 1000 nM; with EFM19, 27 nM; in the experiment with HCC1500, 45 nM; with HCC1569, greater than 1000 nM; with HCC2157, greater than 1000 nM; in the experiment with MCF7, 148 nM. Moreover, the IC50 was greater than 1000 nM in the experiment with MDAMB157, 432 nM in the experiment on MDAMB231, 44 nM in the experiment with MDAMB361 and greater than 1000 nM in the experiment with MDAMB468.

With `CC[C@]1(O)C[C@H]2CN(CCc3c([nH]c4ccccc34)[C@@](C(=O)OC)(c3cc4c(cc3OC)N(C=O)[C@H]3[C@@](O)(C(=O)OC)[C@H](OC(C)=O)[C@]5(CC)C=CCN6CC[C@]43[C@@H]65)C2)C1` [vincristine], the “Efficacy in cell line population with ABCB1 amplification compared to wildtype (median of response curves)” value in [1] is recorded as “lesser efficacy”. The “Efficacy in cell line population with ABCB4 amplification compared to wildtype (median of response curves)” value in experiment [2] is reported as “lower efficacy”.
